Laboratory results: the supplement of paper PMC10307832

What was measured:
Assay in all cases: relative viability (nuclei count vs DMSO), 5 days (fraction); higher = more cells survive
[1] = compound: COc1ccc(-c2ccc3c(N4CCOC[C@@H]4C)nc(N4CCOC[C@@H]4C)nc3n2)cc1CO [AZD8055] + N=C(N)NC(=N)NCCc1ccccc1 [Phenformin] (partner 250 µM)
Outline: (§1)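 Lung cancer cell lines, seeded in 1536-well plates, were treated the following day by pin tool with a single drug or with five library-drug doses (not always all listed) in √10 steps on top of a fixed anchor-drug dose. Cells were fixed and nuclei stained in one step after 5 days, and nuclei were counted. Relative viability is the nuclei count for treated wells divided by that for vehicle wells, reported as medians of duplicate plates.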

[2] = compound: COc1ccc(-c2ccc3c(N4CCOC[C@@H]4C)nc(N4CCOC[C@@H]4C)nc3n2)cc1CO [AZD8055] + COc1cccc2cc(-c3nc([C@H]4CC[C@H](C(=O)O)CC4)n4ncnc(N)c34)[nH]c12 [OSI-027] (partner 0.5 µM)
Outline: as §1

[3] = compound: COc1ccc(-c2ccc3c(N4CCOC[C@@H]4C)nc(N4CCOC[C@@H]4C)nc3n2)cc1CO [AZD8055] + CC(=O)Nc1cccc(-n2c(=O)n(C3CC3)c(=O)c3c(Nc4ccc(I)cc4F)n(C)c(=O)c(C)c32)c1 [Trametinib] (partner 0.02 µM)
Outline: as §1

[4] = compound: COc1ccc(-c2ccc3c(N4CCOC[C@@H]4C)nc(N4CCOC[C@@H]4C)nc3n2)cc1CO [AZD8055] + C[C@@H](Oc1cc(-c2cnn(C3CCNCC3)c2)cnc1N)c1c(Cl)ccc(F)c1Cl [Crizotinib] (partner 1 µM)
Outline: as §1

Row | Cell Line | relative viability ([1]; first compound 0.01 µM) | relative viability ([1]; first compound 0.03162 µM) | relative viability ([1]; first compound 0.1 µM) | relative viability ([1]; first compound 0.3162 µM) | relative viability ([1]; first compound 1 µM) | relative viability ([2]; first compound 0.01 µM) | relative viability ([2]; first compound 0.03162 µM) | relative viability ([2]; first compound 0.1 µM) | relative viability ([2]; first compound 0.3162 µM) | relative viability ([2]; first compound 1 µM) | relative viability ([3]; first compound 0.01 µM) | relative viability ([3]; first compound 0.03162 µM) | relative viability ([3]; first compound 0.1 µM) | relative viability ([3]; first compound 0.3162 µM) | relative viability ([3]; first compound 1 µM) | relative viability ([4]; first compound 0.01 µM) | relative viability ([4]; first compound 0.03162 µM) | relative viability ([4]; first compound 0.1 µM) | relative viability ([4]; first compound 0.3162 µM) | relative viability ([4]; first compound 1 µM)
1 | NCI-H2126 | 0.488 | 0.503 | 0.438 | 0.349 | 0.379 | 0.762 | 0.743 | 0.717 | 0.528 | 0.449 | 0.544 | 0.469 | 0.424 | 0.294 | 0.359 | 0.997 | 1.02 | 0.926 | 0.617 | 0.494
2 | NCI-H2170 | 0.438 | 0.437 | 0.471 | 0.407 | 0.341 | 0.665 | 0.701 | 0.624 | 0.386 | 0.392 | 0.957 | 0.864 | 0.614 | 0.222 | 0.159 | 1.2 | 1.07 | 0.641 | 0.394 | 0.376
3 | NCI-H2228 | 0.307 | 0.205 | 0.188 | 0.133 | 0.212 | 0.548 | 0.446 | 0.281 | 0.176 | 0.234 | 0.507 | 0.314 | 0.211 | 0.159 | 0.199 | 0.39 | 0.229 | 0.286 | 0.173 | 0.302
4 | NCI-H2347 | 0.381 | 0.283 | 0.338 | 0.178 | 0.205 | 0.408 | 0.387 | 0.356 | 0.346 | 0.248 | 0.282 | 0.299 | 0.277 | 0.233 | 0.233 | 0.601 | 0.509 | 0.402 | 0.332 | 0.531
